Molecules are shown by their SMILES. Where only a bound is given, the exact number is not on record here.

From article PMC9000336, “Development of Bicyclo[3.1.0]hexane-Based A3 Receptor Ligands: Closing the Gaps in the Structure–Affinity Relationships” (Molecules, 2022) come the findings set out here.

The target of assay [1] is T1, human adenosine A1 receptor (Homo sapiens, UniProt P30542).
T1 construct: expressed in transfected cells; host or cells: CHO cells (CHOhA1R), gift of Prof; S. J. Hill; membrane preparation
T1 sequence (P30542 1-326): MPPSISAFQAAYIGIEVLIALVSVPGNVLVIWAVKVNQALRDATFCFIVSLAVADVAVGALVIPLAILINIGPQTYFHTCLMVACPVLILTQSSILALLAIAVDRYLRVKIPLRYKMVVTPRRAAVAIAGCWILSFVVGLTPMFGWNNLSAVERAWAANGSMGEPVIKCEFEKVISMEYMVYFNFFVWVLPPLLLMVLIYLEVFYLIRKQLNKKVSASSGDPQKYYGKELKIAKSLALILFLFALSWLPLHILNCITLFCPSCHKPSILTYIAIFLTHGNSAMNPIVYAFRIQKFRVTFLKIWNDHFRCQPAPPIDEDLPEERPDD
Briefly: Radioligand displacement assay, human adenosine A1 receptor ([3H]DPCPX, CHOhA1R membranes). The conditions noted are these: n = 3; for inhibition at 10 µM: test compound 10 µM. The class given is binding. The protocol: Chinese hamster ovary (CHO) cells stably expressing the human adenosine A1 receptor (CHOhA1R) were kindly provided by Prof. S. J. Hill and CHO cells stably expressing the human adenosine A3 receptor (CHOhA3R) were a gift from Dr. K.-N. Klotz (University of Würzburg, Germany). Chinese hamster ovary cells stably expressing the human A1-receptor (CHOhA1R) or the human A3-receptor (CHOhA3R) were grown in Dulbecco’s Modified Eagle’s Medium (DMEM) and Ham’s F12 medium (1:1) supplemented with 10% (v/v) newborn calf serum, 50 µg/mL streptomycin, 50 IU/mL penicillin, and 200 µg/mL G418 at 37 °C and 5% CO2. […] All cells were grown to 80–90% confluency and detached from plates by scraping them into 5 mL phosphate-buffered saline. Detached cells were collected and centrifuged at 200 g for 5 min. Pellets derived from 100 15 cm Ø plates were pooled and resuspended in 70 mL of ice-cold 50 mM tris(hydroxymethyl)aminomethane (Tris)-HCl buffer, pH 7.4. A Heidolph Diax 900 homogenizer was used to homogenize the cell suspension. Membranes and the cytosolic fraction were separated by centrifugation at 100,000 g in a Beckman Optima LE-80 K ultracentrifuge (Beckman Coulter, Fullerton, CA, USA) at 4 °C for 20 min. The pellet was resuspended in 35 mL of the Tris-HCl buffer, and the homogenization and centrifugation steps were repeated. Tris-HCl buffer (25 mL) was used to resuspend the pellet, and adenosine deaminase (ADA) was added (0.8 U/mL) to break down endogenous adenosine. Membranes were stored in 250 µL and 500 µL aliquots at −80 °C. Total protein concentrations were measured using the bicinchoninic acid (BCA) method.
A1 Receptor: Membrane aliquots containing 5 µg (CHOhA1R) protein were incubated in a total volume of 100 µL assay buffer (50 mM Tris-HCl, pH 7.4) at 25 °C for 1 h. […] Nonspecific binding was determined in the presence of 100 µM N^6-cyclopentyladenosine (CPA). Incubations were terminated by rapid vacuum filtration to separate the bound and free radioligand through prewetted 96-well GF/B filter plates using a PerkinElmer Filtermate-harvester (Perkin Elmer, Groningen, the Netherlands). Filters were subsequently washed 12 times with ice-cold 50 mM Tris-HCl, pH 7.4.
(§1) The plates of all four adenosine receptor assays were dried at 55 °C after which MicroscintTM-20-cocktail was added (Perkin Elmer, Groningen, The Netherlands).
(§2) All experimental data were analyzed using the non-linear regression curve fitting program GraphPad Prism 7.0 (GraphPad Software Inc., San Diego, CA, USA). IC50 values obtained from competition displacement binding data were converted into Ki values using the Cheng–Prusoff equation.
A general note: Displacement assays read how much labelled ligand stays bound in the presence of the test substance.

Another assay addresses T2, hA2B receptor (Homo sapiens, UniProt P29275).
T2 construct: expressed in transfected cells; host or cells: CHO-spap cells (CHO-spap-hA2BR), from S. J. Dowell (GlaxoSmithKline); membrane preparation
T2 sequence (P29275 1-332): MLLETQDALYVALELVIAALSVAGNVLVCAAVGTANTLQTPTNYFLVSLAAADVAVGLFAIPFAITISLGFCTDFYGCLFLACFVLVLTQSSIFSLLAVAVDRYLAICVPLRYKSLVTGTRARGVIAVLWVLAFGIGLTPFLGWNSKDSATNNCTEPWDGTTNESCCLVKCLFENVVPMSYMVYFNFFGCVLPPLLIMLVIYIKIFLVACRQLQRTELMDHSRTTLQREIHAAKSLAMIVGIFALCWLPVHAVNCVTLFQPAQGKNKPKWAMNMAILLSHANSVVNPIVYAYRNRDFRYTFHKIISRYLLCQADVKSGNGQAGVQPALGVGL
Kind of assay: Radioligand displacement assay, human adenosine A2B receptor ([3H]PSB-603, CHO-spap-hA2BR membranes). The conditions noted are these: n = 3; for Ki: [3H]PSB-603, read-out: A2B Ki ± SEM. Format: binding. As for the experimental part: Human embryonic kidney 293 cells stably expressing the human adenosine A2A receptor (HEK293hA2AR) were kindly provided by Dr. J. Wang (Biogen/IDEC, Cambridge, MA, USA), CHO-spap cells stably expressing the wild-type (WT) hA2B receptor (CHO-spap-hA2BR) were kindly provided by S. J. Dowell (GlaxoSmithKline, Brentfort, UK).
Chinese hamster ovary cells stably expressing the […] and a reporter gene, the secreted placental alkaline phosphatase, (CHO-spap-hA2BR) were grown in DMEM and Ham’s F12 medium (1:1) supplemented with 10% (v/v) newborn calf serum, 100 µg/mL streptomycin, 100 IU/mL penicillin, 1 mg/mL G418, and 0.4 mg/mL hygromycin at 37 °C and 5% CO2.
All cells were grown to 80–90% confluency and detached from plates by scraping them into 5 mL phosphate-buffered saline. Detached cells were collected and centrifuged at 200 g for 5 min. Pellets derived from 100 15 cm Ø plates were pooled and resuspended in 70 mL of ice-cold 50 mM tris(hydroxymethyl)aminomethane (Tris)-HCl buffer, pH 7.4. A Heidolph Diax 900 homogenizer was used to homogenize the cell suspension. Membranes and the cytosolic fraction were separated by centrifugation at 100,000 g in a Beckman Optima LE-80 K ultracentrifuge (Beckman Coulter, Fullerton, CA, USA) at 4 °C for 20 min. The pellet was resuspended in 35 mL of the Tris-HCl buffer, and the homogenization and centrifugation steps were repeated. Tris-HCl buffer (25 mL) was used to resuspend the pellet, and adenosine deaminase (ADA) was added (0.8 U/mL) to break down endogenous adenosine. Membranes were stored in 250 µL and 500 µL aliquots at −80 °C. Total protein concentrations were measured using the bicinchoninic acid (BCA) method.
A2B Receptor: Membrane aliquots containing 30 µg (CHO-spap-hA2BR) total protein were incubated in a total volume of 100 µL assay buffer (0.1% CHAPS in 50 mM TrisHCl, pH 7.4) at 25 °C for 2 h. […] Nonspecific binding was determined in the presence of 10 µM ZM241385. Incubations were terminated by rapid vacuum filtration to separate the bound and free radioligand through prewetted 96-well GF/B filter plates using a PerkinElmer Filtermate-harvester (Perkin Elmer, Groningen, the Netherlands). Filters were subsequently washed 12 times with ice-cold 0.1% BSA in 50 mM Tris-HCl, pH 7.4.
as §1, §2

One may read the inhibition as the share of the control response that was lost under treatment. Lower therefore signals little suppression. The Ki is the equilibrium dissociation constant of an inhibitor or competing ligand from its target. `Nc1cc(Cl)c2ncn([C@H]3[C@H](O)[C@H](O)[C@]4(CO)C[C@H]34)c2n1` [Compound 11, (1R,2R,3S,4R,5S)-4-(5-Amino-7-chloro-3H-imidazo[4,5-b]pyridin-3-yl)-1-(hydroxymethyl)bicyclo[3.1.0]hexane-2,3-diol]: the inhibition at 10 µM in assay [1] was found to be 5%. Further, the Ki on hA2B receptor was above 10 µM.

In the case of `OC[C@@]12C[C@@H]1[C@@H](n1cnc3c(Cl)cc(Cl)nc31)[C@H](O)[C@@H]2O` [Compound 12, (1R,2R,3S,4R,5S)-4-(5,7-Dichloro-3H-imidazo[4,5-b]pyridin-3-yl)-1-(hydroxymethyl)bicyclo[3.1.0]hexane-2,3-diol], the Ki in assay [1] ([3H]DPCPX, read-out: A1 Ki ± SEM) was above 10 µM; at hA2B receptor it was above 10 µM.

`OC[C@@]12C[C@@H]1[C@@H](n1cnc3c(NCc4ccccc4)cc(Cl)nc31)[C@H](O)[C@@H]2O` [Compound 13, (1R,2R,3S,4R,5S)-4-[7-(Benzylamino)-5-chloro-3H-imidazo[4,5-b]pyridin-3-yl]-1-(hydroxymethyl)bicyclo[3.1.0]hexane-2,3-diol]: the inhibition at 10 µM in assay [1] worked out at 25%. The inhibition constant Ki at hA2B receptor was above 10 µM.

Take `CSc1cc(NCc2ccccc2)c2ncn([C@H]3[C@H](O)[C@H](O)[C@]4(CO)C[C@H]34)c2n1` [Compound 14, (1R,2R,3S,4R,5S)-4-[7-(Benzylamino)-5-methylthio-3H-imidazo[4,5-b]pyridin-3-yl]-1-(hydroxymethyl)bicyclo[3.1.0]hexane-2,3-diol]: in assay [1], the inhibition at 10 µM is 20%. Moreover, at hA2B receptor, the inhibition constant (Ki) was above 10 µM.

Turning to `COc1ccc(CNc2cc(Cl)nc3c2ncn3[C@H]2[C@H](O)[C@H](O)[C@]3(CO)C[C@H]23)cc1` [Compound 15, (1R,2R,3S,4R,5S)-4-{5-Chloro-7-[(4-methoxy)benzylamino]-3H-imidazo[4,5-b]pyridin-3-yl}-1-(hydroxymethyl)bicyclo[3.1.0]hexane-2,3-diol], 10 µM produced 12% inhibition in assay [1]. The inhibition constant Ki on hA2B receptor is above 10 µM.

For the molecule `Nc1cc(Cl)nc2c1ncn2[C@H]1[C@H](O)[C@H](O)[C@]2(CO)C[C@H]12` [Compound 16, (1R,2R,3S,4R,5S)-4-(7-Amino-5-chloro-3H-imidazo[4,5-b]pyridin-3-yl)-1-(hydroxymethyl)bicyclo[3.1.0]hexane-2,3-diol], the inhibition at 10 µM in assay [1] amounted to 32%. Also, the Ki at hA2B receptor was above 10 µM.

In assay [1], `CSc1cc(N)c2ncn([C@H]3[C@H](O)[C@H](O)[C@]4(CO)C[C@H]34)c2n1` [Compound 17, (1R,2R,3S,4R,5S)-4-(7-Amino-5-methylthio-3H-imidazo[4,5-b]pyridin-3-yl)-1-(hydroxymethyl)bicyclo[3.1.0]hexane-2,3-diol] displayed an inhibition at 10 µM of 23%. Besides, the Ki at hA2B receptor is above 10 µM.

In the case of `OC[C@@]12C[C@@H]1[C@@H](n1cnc3c(N(Cc4ccccc4)Cc4ccccc4)ncnc31)[C@H](O)[C@@H]2O` [Compound 26, (1R,2R,3S,4R,5S)-4-[6-(Dibenzylamino)-9H-purin-9-yl]-1-(hydroxymethyl)bicyclo[3.1.0]hexane-2,3-diol], the inhibition at 10 µM in assay [1] stood at 25%. For the same molecule, the “A2B displacement at 10 µM” value at hA2B receptor (test compound 10 µM) is given as 12%.

In assay [1], `OC[C@@]12C[C@@H]1[C@@H](n1cnc3c(N(Cc4ccccc4)Cc4ccccc4)nc(Cl)nc31)[C@H](O)[C@@H]2O` [Compound 27, (1R,2R,3S,4R,5S)-4-[6-(Dibenzylamino)-2-chloro-9H-purin-9-yl]-1-(hydroxymethyl)bicyclo[3.1.0]hexane-2,3-diol] displayed an inhibition at 10 µM of 15%. Besides, on hA2B receptor, the Ki was above 10 µM.

Molecule `CSc1nc(N(Cc2ccccc2)Cc2ccccc2)c2ncn([C@H]3[C@H](O)[C@H](O)[C@]4(CO)C[C@H]34)c2n1` [Compound 30, (1R,2R,3S,4R,5S)-4-[6-(Dibenzylamino)-2-methylthio-9H-purin-9-yl]-1-(hydroxymethyl)bicyclo[3.1.0]hexane-2,3-diol] displayed an inhibition at 10 µM in assay [1] of 30%. Further, the inhibition constant Ki on hA2B receptor was above 10 µM.
